Laboratory results: patent US20240226100A1, “CONTROL OF PROTEIN EXPRESSION WITH TMP-PROTAC COMPOUNDS” (THE TRUSTEES OF THE UNIVERSITY OF PENNSYLVANIA, priority 2021, published 2024)

Columns and labels:
eDHFR-YFP [1] = experiment: Time and dose-dependent degradation of YFP in Jurkat-DYL / Jurkat eDHFR-YFP+ cells, flow cytometry; format: cell-based, Escherichia coli
Experimental: Likewise, Jurkat eDHFR-YFP (Jurkat^eDHFR-YFP+) cells are seeded in clear (Falcon) 12-well plates (3×10^5 cells/well) in complete media. […]

eDHFR-YFP [2] = experiment: Degradation of YFP in HEK293T-DYL cells, flow cytometry; format: cell-based, Escherichia coli; conditions: 72 and 96 h, varying doses
Description: The left panel represents the mean YFP fluorescence and the right panel represents the same data in percent of maximum YFP fluorescence normalized to HEK293T-DYL treated with DMSO.

eDHFR-Luc = experiment: Degradation of luciferase in HEK293T-DL cells, luminescence; format: cell-based, Escherichia coli; conditions: 12 and 24 h, varying doses
TNFα = experiment: Cytokine release assay, TNFα ELISA of killing assay supernatant; format: cell-based, human
Experimental: (§1) The concentration of TNF-α and IFN-g in the supernatants following killing assay was determined by ELISA.

IFNγ = experiment: Cytokine release assay, IFNγ ELISA of killing assay supernatant; format: cell-based, human; conditions: for T cell IFNγ release / secretion: supernatant of killing assay, 100 nM compound
Experimental: as §1

[3] = test system: FAP CAR-eDHFR fusion protein; experiment: CAR downregulation in Jurkat cells expressing FAP CAR-eDHFR fusion protein, flow cytometry; format: cell-based, Escherichia coli; conditions: serial time points
Description: Data plotted as raw CAR stain fluorescence is shown in the left panel and percent of maximum CAR expression is shown in the right panel.

eDHFR-YFP [4] = experiment: Washout experiment, reversal of YFP degradation in Jurkat eDHFR-YFP+ cells, flow cytometry; format: cell-based, Escherichia coli; conditions: 100 nM, washout after 24 h
Experimental: Jurkat^eDHFR-YFP+ cells were seeded in a clear (Falcon) 12-well plate (3×10^5 cells/well) in complete media and incubated overnight. The following day, all wells were dosed with 100 nM of 7c, and cells were sampled at 0, 4, 8, 12, and 24 h following incubation (1 well was sampled per time point). Following 24 h incubation, remaining wells of cells were collected and centrifuged (Thermo Scientific Sorvall Legend X1R) at 1200 rpm for 5 minutes. Cells were washed 3 times with PBS and seeded on a new clear (Falcon) 12-well plate in fresh complete media. The cells were sampled at 3, 6, 24, 48, and 72 h following the drug washout. All cells were fixed in 4% PFA following sampling, and all samples from […] were analyzed together on a flow cytometer (BD).

eDHFR-YFP [5] = experiment: Degradation of eDHFR-YFP in HEK293T eDHFR-YFP+ cells, Western blot with anti-YFP antibody; format: cell-based, Escherichia coli; conditions: 100 nM, 24 h
Experimental: HEK293T eDHFR-YFP (HEK293T^eDHFR-YFP+) and OVCAR8 eDHFR-luc (OVCAR8^eDHFR-luc+) cells are prepared in clear (Falcon) 6-well plates (5×10^5 cells/well) and cultured in complete media. Compound 7c is solubilized in 100% DMSO to 10 mM. 10 mM 7c is serially diluted in sterile water accordingly and each dose administered to cells in fresh media at equal volume, such that the final concentration of DMSO in cell media is <1%. Once incubation with drug is completed, media is removed by vacuum, cells are washed with phosphate-buffered saline (PBS), trypsonized at 37° C., quenched with media, and centrifuged (Thermo Scientific Sorvall Legend X1R) at 1000 RPM for 5 minutes. Media and cell debris are removed by vacuum.
Once cells are isolated by centrifugation (Thermo Scientific Sorvall Legend X1R), they are solubilized in radioimmunoprecipitation assay (RIPA) lysis buffer with protease inhibitor. Cell lysate is incubated on ice for 30 minutes, sonicated, then centrifuged (Thermo Scientific Sorvall Legend Micro 21R) at 14,800 RPM for 10 minutes. Supernatant is removed and transferred to a new Eppendorf tube.
Using Thermo Scientific bicinchoninic acid (BCA) assay kit, total cell protein is quantified and compared to bovine serum albumin (BSA) standards ranging from 10 to 0.625 mg/mL. Cell lysate is aliquoted into a 96-well clear plate (Falcon) and mixed with reagent and shaken at 37° C. for 30 minutes. Samples are analyzed by plate reader (ThermoFisher Varioskan Plusplate), where absorbance is measured at […]. A calibration curve is developed, and samples are prepared to equal mass (mg) of total protein for gel electrophoresis.
Cell lysate is prepared by mixing with 4 uL of loading dye and PBS to give equal total protein and equal total volume across all samples. Each sample is loaded into a NuPage gel (4-12% Bis-tris) and developed in NuPage MES Running Buffer. Once complete, the gel is removed and prepared for protein transfer to membrane. […]

eDHFR-YFP [6] = experiment: Washout experiment, eDHFR-YFP recovery in HEK293T eDHFR-YFP+ cells, Western blot; format: cell-based, Escherichia coli; conditions: 100 nM 7c, washed twice with PBS
Experimental: HEK293T^eDHFR-YFP+ cells were seeded in a clear (Falcon) 12-well plate (3×10^5 cells/well) in complete media. The next day, cells were incubated with 100 nM 7c for 24 h in complete media. Media was removed by vacuum, cells were gently washed with 1 mL PBS 2×, then cell media was replenished. Next, cells were isolated +0 to 24 h after washing and prepared for Western blot analysis.
Protein degradation is reversed in as early as 4 h after drug removal from cell media.

eDHFR-Lck fusion protein = experiment: Dose response in HEK293T eDHFR-Lck cells, Western blot; format: cell-based, Escherichia coli; conditions: 24 h
FAP-eDHFR DF CAR T cells = experiment: In vitro killing assay of FAP-eDHFR DF CAR T cells against I45 huFAP-Luc target cells
[7] = different concentrations, 10:1 E:T

COc1cc(Cc2cnc(N)nc2N)cc(OC)c1OCCCC(=O)NCCOCCOCCNc1cccc2c1C(=O)N(C1CCC(=O)NC1=O)C2=O (stereo not shown) [Compound 7c, 4-(4-((2,4-diaminopyrimidin-5-yl)methyl)-2,6-dimethoxyphenoxy)-N-(2-(2-(2-((2-(2,6-dioxopiperidin-3-yl)-1,3-dioxoisoindolin-4-yl)amino)ethoxy)ethoxy)ethyl)butanamide]
YFP remaining, % of maximum (no drug control) (eDHFR-YFP [1]; Jurkat eDHFR-YFP+, as early as 4 h): 20 % of maximum | degradation of YFP (eDHFR fusion protein) (eDHFR-YFP [1]; Jurkat-DYL, 4, 8 and 18 h incubation, varying doses): degrade eDHFR fusion proteins to low/no functional expression | degradation of YFP (eDHFR-YFP [2]): degraded | degradation of luciferase (eDHFR-Luc): degraded | TNFα secretion across concentrations (TNFα; [7]): inhibition of CAR T cell signaling | T cell TNF-α release (TNFα; supernatant of killing assay, 100 nM compound): inhibits | IFNγ secretion across concentrations (IFNγ; [7]): inhibition of CAR T cell signaling | T cell IFNγ release / secretion (IFNγ): inhibits | T cell IFNγ release / secretion (IFNγ; listed as TMP-POM 7c): inhibition of CAR T cell signaling | degradation of CAR molecules from the surface of Jurkat cells [3]: leads to degradation of CAR molecules from the surface of Jurkat cells | time to full return of YFP expression to baseline following drug washout (eDHFR-YFP [4]): approximately 72 h | eDHFR-YFP degradation at 100 nM (eDHFR-YFP [5]): causes eDHFR-YFP to degrade | time after drug removal at which protein degradation is reversed (eDHFR-YFP [6]): ≤ 4 h | concentration of optimal degradation of eDHFR-Lck fusion protein (eDHFR-Lck fusion protein): 97 nM | cytotoxic function of FAP-eDHFR CAR T cells against FAP-expressing target cells (FAP-eDHFR DF CAR T cells; CAR T cells pre-incubated 24 h with 100 nM compound, varying E:T ratios): inhibition of their cytotoxic function | cytotoxic activity of FAP-eDHFR DF CAR T cells across concentrations (FAP-eDHFR DF CAR T cells; pre-incubated overnight at different concentrations, 10:1 E:T): tunable in a dose-dependent manner
